Assay results published in PMC11090339, “Synthesis, molecular docking study and biological evaluation of new pyrrole scaffolds as potential antitubercular agents for dual targeting of enoyl ACP reductase and dihydrofolate reductase” (PLOS ONE, 2024).
In brackets after ≈: the same amount, converted by molar mass.

Experiments:
[1] = tested on: S. aureus (Gram-positive); test: Antibacterial activity, broth microdilution method; type: cell-based; details: Staphylococcus aureus, read-out: S. aureus (Gram +ve) MIC
E. coli (Gram-negative) = test: Antibacterial activity, broth microdilution method; type: cell-based; details: Escherichia coli, read-out: E. coli (Gram–ve) MIC
M. tuberculosis H37Rv = test: Antitubercular activity, Microplate Alamar Blue test (MABA); type: cell-based; details: Mycobacterium tuberculosis
[2] = tested on: Mammalian Vero cell-lines; test: MTT-based cytotoxicity activity; details: Chlorocebus sabaeus, means ± SEM of three independent experiments, read-out: IC50 MV cell-lines
MtDHFR = MtDHFR (Mycobacterium tuberculosis, UniProt P9WNX1); test: biochemical; type: biochemical; details: for MtDHFR inhibition compared with trimethoprim: in words
Chain of MtDHFR (P9WNX1 whole entry): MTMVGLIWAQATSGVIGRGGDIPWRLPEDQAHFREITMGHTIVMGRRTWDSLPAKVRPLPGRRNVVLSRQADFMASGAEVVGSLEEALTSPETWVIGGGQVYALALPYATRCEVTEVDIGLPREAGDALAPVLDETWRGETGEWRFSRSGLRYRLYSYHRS

[3] = tested on: A549 (lung adenocarcinoma) cell-lines; test: MTT-based cytotoxicity activity; type: cell-based; details: Homo sapiens, means ± SEM of three independent experiments
InhA = InhA (Mycobacterium tuberculosis, UniProt P9WGR1); test: Enoyl ACP reductase (InhA) inhibition; type: biochemical
Chain of InhA (P9WGR1 whole entry, looked up): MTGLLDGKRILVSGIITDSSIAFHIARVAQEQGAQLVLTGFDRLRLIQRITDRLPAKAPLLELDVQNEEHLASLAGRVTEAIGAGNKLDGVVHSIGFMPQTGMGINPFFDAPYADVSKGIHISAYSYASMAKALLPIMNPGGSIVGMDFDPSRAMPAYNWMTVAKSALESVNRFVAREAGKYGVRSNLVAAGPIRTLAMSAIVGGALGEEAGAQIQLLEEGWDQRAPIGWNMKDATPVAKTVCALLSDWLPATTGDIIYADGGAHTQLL

Compound | MIC [1] | MIC (E. coli (Gram-negative)) | MIC (M. tuberculosis H37Rv) | IC50 [2] | IC50 (MtDHFR) | MtDHFR inhibition compared with trimethoprim (MtDHFR) | IC50 [3] | inhibition at 50 µM (InhA)
O=C(O)c1cn(C2CC2)c2cc(N3CCNCC3)c(F)cc2c1=O [Ciprofloxacin, reference compound] | 2 µg/mL (≈ 6.04 µM) | 2 µg/mL (≈ 6.04 µM) |  |  |  |  |  | 
O=C(COc1ccccc1)NNC(=O)c1ccc(-n2cccc2)cc1 [Compound 3a, N’-(2-phenoxyacetyl)-4-(1H-pyrrol-1-yl) benzohydrazide] | 100 µg/mL (≈ 298 µM) | 6.25 µg/mL (≈ 18.6 µM) | 12.5 µg/mL (≈ 37.3 µM) |  |  |  |  | 
Cc1ccc(OCC(=O)NNC(=O)c2ccc(-n3cccc3)cc2)cc1 [Compound 3b, 4-(1H-pyrrol-1-yl)-N’-(2-(p-tolyloxy)acetyl)benzohydrazide] | 100 µg/mL (≈ 286 µM) | 6.25 µg/mL (≈ 17.9 µM) | 12.5 µg/mL (≈ 35.8 µM) |  |  |  |  | 
O=C(COc1ccccc1O)NNC(=O)c1ccc(-n2cccc2)cc1 [Compound 3c, N’-(2-(2-hydroxyphenoxy)acetyl)-4-(1H-pyrrol-1-yl)benzohydrazide] | 100 µg/mL (≈ 285 µM) | 3.12 µg/mL (≈ 8.88 µM) | 3.12 µg/mL (≈ 8.88 µM) | 223 ± 0.7 µM | 25 µM | greater inhibition characteristics than trimethoprim | 224 ± 0.6 µM | 46%
Cc1ccc(OCC(=O)NNC(=O)c2ccc(-n3cccc3)cc2)c(C)c1 [Compound 3d, N’-(2-(2,4-dimethylphenoxy)acetyl)-4-(1H-pyrrol-1yl)benzohydrazide] | 100 µg/mL (≈ 275 µM) | 1.6 µg/mL (≈ 4.4 µM) | 3.12 µg/mL (≈ 8.59 µM) | 216 ± 0.4 µM | 32 µM | greater inhibition characteristics than trimethoprim | 212 ± 0.4 µM | 48%
Cc1cccc(OCC(=O)NNC(=O)c2ccc(-n3cccc3)cc2)c1 [Compound 3e, 4-(1H-pyrrol-1-yl)-N’-(2-(m-tolyloxy)acetyl)benzohydrazide] | 100 µg/mL (≈ 286 µM) | 12.5 µg/mL (≈ 35.8 µM) | 6.25 µg/mL (≈ 17.9 µM) |  |  |  |  | 
O=C(COc1ccc(Cl)cc1)NNC(=O)c1ccc(-n2cccc2)cc1 [Compound 3f, N’-(2-(4-chlorophenoxy)acetyl)-4-(1H-pyrrol-1-yl)benzohydrazide] | 100 µg/mL (≈ 270 µM) | 12.5 µg/mL (≈ 33.8 µM) | 6.25 µg/mL (≈ 16.9 µM) |  | 122 µM |  |  | 
O=C(COc1cc(O)cc(O)c1)NNC(=O)c1ccc(-n2cccc2)cc1 [Compound 3g, N’-(2-(3,5-dihydroxyphenoxy)acetyl)-4-(1H-pyrrol-1-yl) benzohydrazide] | 100 µg/mL (≈ 272 µM) | 1.6 µg/mL (≈ 4.36 µM) | 3.12 µg/mL (≈ 8.49 µM) | 216 ± 0.5 µM | 20 µM | greater inhibition characteristics than trimethoprim | 216 ± 0.5 µM | 63%
Cc1cc(C)cc(OCC(=O)NNC(=O)c2ccc(-n3cccc3)cc2)c1 [Compound 3h, N’-(2-(3,5-dimethylphenoxy)acetyl)-4-(1H-pyrrol-1-yl) benzohydrazide] | 100 µg/mL (≈ 275 µM) | 3.12 µg/mL (≈ 8.59 µM) | 3.12 µg/mL (≈ 8.59 µM) | 219 ± 0.6 µM | 19 µM | greater inhibition characteristics than trimethoprim | 219 ± 0.1 µM | 59%
O=C(COc1cccc(O)c1)NNC(=O)c1ccc(-n2cccc2)cc1 [Compound 3i, N’-(2-(3-hydroxyphenoxy)acetyl)-4-(1H-pyrrol-1-yl)benzohydrazide] | 100 µg/mL (≈ 285 µM) | 12.5 µg/mL (≈ 35.6 µM) | 12.5 µg/mL (≈ 35.6 µM) |  |  |  |  | 
O=C(COc1ccccc1Cl)NNC(=O)c1ccc(-n2cccc2)cc1 [Compound 3j, N’-(2-(2-chlorophenoxy)acetyl)-4-(1H-pyrrol-1-yl)benzohydrazide] | 100 µg/mL (≈ 270 µM) | 6.25 µg/mL (≈ 16.9 µM) | 12.5 µg/mL (≈ 33.8 µM) |  |  |  |  | 
Cc1ccc(C)n1-c1ccc(C(=O)NNC(=O)COc2ccccc2)cc1 [Compound 5a, 4-(2,5-dimethyl-1H-pyrrol-1-yl)-N’-(2-phenoxyacetyl) benzohydrazide] | 100 µg/mL (≈ 275 µM) | 6.25 µg/mL (≈ 17.2 µM) | 6.25 µg/mL (≈ 17.2 µM) |  | 98 µM |  |  | 26%
Cc1ccc(OCC(=O)NNC(=O)c2ccc(-n3c(C)ccc3C)cc2)cc1 [Compound 5b, 4-(2,5-dimethyl-1H-pyrrol-1-yl)-N’-(2-(p-tolyloxy)acetyl) benzohydrazide] | 100 µg/mL (≈ 265 µM) | 12.5 µg/mL (≈ 33.1 µM) | 12.5 µg/mL (≈ 33.1 µM) |  |  |  |  | 
Cc1ccc(C)n1-c1ccc(C(=O)NNC(=O)COc2ccccc2O)cc1 [Compound 5c, 4-(2,5-dimethyl-1H-pyrrol-1-yl)-N’-(2-(2-hydroxyphenoxy)acetyl) benzohydrazide] | 100 µg/mL (≈ 264 µM) | 12.5 µg/mL (≈ 32.9 µM) | 12.5 µg/mL (≈ 32.9 µM) |  |  |  |  | 
Cc1ccc(OCC(=O)NNC(=O)c2ccc(-n3c(C)ccc3C)cc2)c(C)c1 [Compound 5d, 4-(2,5-dimethyl-1H-pyrrol-1-yl)-N’-(2-(2,4-dimethylphenoxy)acetyl) benzohydrazide] | 100 µg/mL (≈ 255 µM) | 3.12 µg/mL (≈ 7.97 µM) | 1.6 µg/mL (≈ 4.09 µM) | 226 ± 0.5 µM | 56 µM | greater inhibition characteristics than trimethoprim | 222 ± 0.5 µM | 62%
Cc1cccc(OCC(=O)NNC(=O)c2ccc(-n3c(C)ccc3C)cc2)c1 [Compound 5e, 4-(2,5-dimethyl-1H-pyrrol-1-yl)-N’-(2-(m-tolyloxy)acetyl) benzohy drazide] | 100 µg/mL (≈ 265 µM) | 3.12 µg/mL (≈ 8.27 µM) | 1.6 µg/mL (≈ 4.24 µM) | 220 ± 0.2 µM | 62 µM | greater inhibition characteristics than trimethoprim | 219 ± 0.3 µM | 66%
Cc1ccc(C)n1-c1ccc(C(=O)NNC(=O)COc2ccc(Cl)cc2)cc1 [Compound 5f, N’-(2-(4-chlorophenoxy)acetyl)-4-(2,5-dimethyl-1H-pyrrol-1-yl) ben zohydrazide] | 100 µg/mL (≈ 251 µM) | 6.25 µg/mL (≈ 15.7 µM) | 3.12 µg/mL (≈ 7.84 µM) |  |  |  |  | 
Cc1ccc(C)n1-c1ccc(C(=O)NNC(=O)COc2cc(O)cc(O)c2)cc1 [Compound 5g, N’-(2-(3,5-dihydroxyphenoxy)acetyl)-4-(2,5-dimethyl-1H-pyrrol-1-yl) benzohydrazide] | 100 µg/mL (≈ 253 µM) | 3.12 µg/mL (≈ 7.89 µM) | 3.12 µg/mL (≈ 7.89 µM) |  |  |  |  | 
Cc1cc(C)cc(OCC(=O)NNC(=O)c2ccc(-n3c(C)ccc3C)cc2)c1 [Compound 5h, 4-(2,5-dimethyl-1H-pyrrol-1-yl)-N’-(2-(3,5-dimethylphenoxy)acetyl) benzohydrazide] | 100 µg/mL (≈ 255 µM) | 3.12 µg/mL (≈ 7.97 µM) | 3.12 µg/mL (≈ 7.97 µM) |  |  |  |  | 
Cc1ccc(C)n1-c1ccc(C(=O)NNC(=O)COc2cccc(O)c2)cc1 [Compound 5i, 4-(2,5-dimethyl-1H-pyrrol-1-yl)-N’-(2-(3-hydroxyphenoxy)acetyl) benzohydrazide] | 100 µg/mL (≈ 264 µM) | 3.12 µg/mL (≈ 8.22 µM) | 6.25 µg/mL (≈ 16.5 µM) |  |  |  |  | 
Cc1ccc(C)n1-c1ccc(C(=O)NNC(=O)COc2ccccc2Cl)cc1 [Compound 5j, N’-(2-(2-chlorophenoxy)acetyl)-4-(2,5-dimethyl-1H-pyrrol-1-yl) ben zohydrazide] | 100 µg/mL (≈ 251 µM) | 6.25 µg/mL (≈ 15.7 µM) | 3.12 µg/mL (≈ 7.84 µM) |  |  |  |  | 
NNC(=O)c1ccncc1 [INH, Isoniazid, reference compound] |  |  |  | > 450 µM |  |  | > 450 µM | 
NC(=O)c1cnccn1 [Pyrazinamide, reference compound] |  |  | 3.12 µg/mL (≈ 25.3 µM) |  |  |  |  | 
[H]/N=C(/N)N[C@H]1[C@H](O)[C@@H](O)[C@H](O[C@@H]2O[C@@H](C)[C@](O)(C=O)[C@H]2O[C@@H]2O[C@@H](CO)[C@H](O)[C@@H](O)[C@@H]2NC)[C@@H](N/C(N)=N\[H])[C@@H]1O [Streptomycin, reference compound] |  |  | 6.25 µg/mL (≈ 10.7 µM) |  |  |  |  | 
